Reference: ChEMBL document CHEMBL3885881, “DrugMatrix”

Species: Rattus norvegicus
Assay: DrugMatrix - Regimen: Daily Repeat
Format: toxicity, organism-based, Sprague-Dawley
Parameters: regimen Daily Repeat, gender Male, age 6-8 weeks
Conditions: in vivo, iv, 72 h, time 3 day, vehicle 100 % SALINE; for ABSOLUTE BASOPHIL / ABSOLUTE EOSINOPHIL / ABSOLUTE LYMPHOCYTE / ABSOLUTE MONOCYTE / ABSOLUTE SEGMENTED NEUTROPHIL / BASOPHIL / EOSINOPHIL / ERYTHROCYTE COUNT / HEMATOCRIT / HEMOGLOBIN / LEUKOCYTE COUNT / LYMPHOCYTE / MEAN CORPUSCULAR HEMOGLOBIN / MEAN CORPUSCULAR HEMOGLOBIN CONCENTRATION / MEAN CORPUSCULAR VOLUME / MONOCYTE / NEUTROPHIL / NUCLEATED RED BLOOD CELLS / PLATELET COUNT: tissue Blood; for ALANINE AMINOTRANSFERASE / ALKALINE PHOSPHATASE / ASPARTATE AMINOTRANSFERASE / BLOOD UREA NITROGEN / CARBON DIOXIDE / CHLORIDE / CHOLESTEROL / CREATINE PHOSPHOKINASE / CREATININE / GLUCOSE / LACTATE DEHYDROGENASE / LIPASE / PHOSPHORUS / POTASSIUM / SODIUM / TOTAL BILIRUBIN / TOTAL PROTEIN / URIC ACID: tissue Plasma

## COc1cc2c(c(OC)c1OC)-c1ccc(OC)c(=O)cc1[C@@H](NC(C)=O)CC2 [COLCHICINE]
0.06 mg/kg, dose level Low
  ABSOLUTE BASOPHIL: 0 CELLS/uL
  ABSOLUTE EOSINOPHIL: 27.33 CELLS/uL
  ABSOLUTE LYMPHOCYTE: 6156.67 CELLS/uL
  ABSOLUTE MONOCYTE: 0 CELLS/uL
  ABSOLUTE SEGMENTED NEUTROPHIL: 749.33 CELLS/uL
  BASOPHIL: 0%
  EOSINOPHIL: 0.33%
  ERYTHROCYTE COUNT: 5.17 x10E6/uL
  HEMATOCRIT: 32.07%
  HEMOGLOBIN: 12.27 G/DL
  LEUKOCYTE COUNT: 6.93 x10E3/uL
  LYMPHOCYTE: 89%
  MEAN CORPUSCULAR HEMOGLOBIN: 23.77 pg
  MEAN CORPUSCULAR HEMOGLOBIN CONCENTRATION: 38.27 G/DL
  MEAN CORPUSCULAR VOLUME: 62.1 fL
  MONOCYTE: 0%
  NEUTROPHIL: 10.67%
  NUCLEATED RED BLOOD CELLS: 0 /100WBC
  PLATELET COUNT: 1043 x10E3/uL
  ALANINE AMINOTRANSFERASE: 47.67 u/L
  ALKALINE PHOSPHATASE: 415.67 u/L
  ASPARTATE AMINOTRANSFERASE: 76.33 u/L
  BLOOD UREA NITROGEN: 14 mg/dL
  CARBON DIOXIDE: 31.67 mmol/L
  CHLORIDE: 96.33 MEQ/L
  CHOLESTEROL: 74 mg/dL
  CREATINE PHOSPHOKINASE: 201 u/L
  CREATININE: 0.18 mg/dL
  GLUCOSE: 136.67 mg/dL
  LACTATE DEHYDROGENASE: 97 u/L
  LIPASE: 8 u/L
  PHOSPHORUS: 13.4 mg/dL
  POTASSIUM: 6.43 MEQ/L
  SODIUM: 144.43 MEQ/L
  TOTAL BILIRUBIN: 0.17 mg/dL
  TOTAL PROTEIN: 6.37 G/DL
  URIC ACID: 1.13 mg/dL
0.6 mg/kg, dose level High
  ABSOLUTE BASOPHIL: 0 CELLS/uL
  ABSOLUTE EOSINOPHIL: 18.33 CELLS/uL
  ABSOLUTE LYMPHOCYTE: 4412.33 CELLS/uL
  ABSOLUTE MONOCYTE: 18.33 CELLS/uL
  ABSOLUTE SEGMENTED NEUTROPHIL: 317.67 CELLS/uL
  BASOPHIL: 0%
  EOSINOPHIL: 0.33%
  ERYTHROCYTE COUNT: 4.91 x10E6/uL
  HEMATOCRIT: 30.9%
  HEMOGLOBIN: 11.7 G/DL
  LEUKOCYTE COUNT: 4.77 x10E3/uL
  LYMPHOCYTE: 93%
  MEAN CORPUSCULAR HEMOGLOBIN: 23.87 pg
  MEAN CORPUSCULAR HEMOGLOBIN CONCENTRATION: 37.87 G/DL
  MEAN CORPUSCULAR VOLUME: 62.97 fL
  MONOCYTE: 0.33%
  NEUTROPHIL: 6.33%
  NUCLEATED RED BLOOD CELLS: 0.33 /100WBC
  PLATELET COUNT: 987.33 x10E3/uL
  ALANINE AMINOTRANSFERASE: 103.67 u/L
  ALKALINE PHOSPHATASE: 371.33 u/L
  ASPARTATE AMINOTRANSFERASE: 526.67 u/L
  BLOOD UREA NITROGEN: 14.33 mg/dL
  CARBON DIOXIDE: 28.67 mmol/L
  CHLORIDE: 97 MEQ/L
  CHOLESTEROL: 115.67 mg/dL
  CREATINE PHOSPHOKINASE: 183.67 u/L
  CREATININE: 0.17 mg/dL
  GLUCOSE: 165.67 mg/dL
  LACTATE DEHYDROGENASE: 137.33 u/L
  LIPASE: 9 u/L
  PHOSPHORUS: 11.9 mg/dL
  POTASSIUM: 6.74 MEQ/L
  SODIUM: 144.13 MEQ/L
  TOTAL BILIRUBIN: 0.13 mg/dL
  TOTAL PROTEIN: 6.3 G/DL
  URIC ACID: 1.67 mg/dL
